Data published in ChEMBL document CHEMBL1909046, “DrugMatrix in vitro pharmacology data”.

Tests used:
[1] = molecular target: T1, Neuropeptide Y receptor type 1 (Homo sapiens, UniProt P25929); format: cell membranes, Membrane; details: sk-n-mc; also: in other assays of this panel Not Active means under 50% inhibition at 10 µM
T1 sequence (P25929 whole entry): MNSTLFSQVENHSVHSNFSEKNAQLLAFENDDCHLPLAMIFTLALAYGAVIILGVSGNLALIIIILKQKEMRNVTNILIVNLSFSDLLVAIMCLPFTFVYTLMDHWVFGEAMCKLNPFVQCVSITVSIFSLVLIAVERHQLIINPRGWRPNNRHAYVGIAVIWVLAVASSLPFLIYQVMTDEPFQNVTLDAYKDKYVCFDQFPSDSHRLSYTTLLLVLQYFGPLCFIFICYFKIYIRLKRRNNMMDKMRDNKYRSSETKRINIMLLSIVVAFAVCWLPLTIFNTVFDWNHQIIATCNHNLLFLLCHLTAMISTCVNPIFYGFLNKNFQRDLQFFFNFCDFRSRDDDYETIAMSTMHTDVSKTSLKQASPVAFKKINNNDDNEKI

[2] = DRUGMATRIX: beta-Lactamase enzyme inhibition (substrate: Nitrocefin); set-up: species or system Bacillus cereus; details: Not Active = under 50% inhibition at 10 µM
[3] = molecular target: T2, Type-2 angiotensin II receptor (Homo sapiens, UniProt P50052); format: cell-based; details: cho-k1; also: in other assays of this panel Not Active means under 50% inhibition at 10 µM
T2 sequence (P50052 whole entry): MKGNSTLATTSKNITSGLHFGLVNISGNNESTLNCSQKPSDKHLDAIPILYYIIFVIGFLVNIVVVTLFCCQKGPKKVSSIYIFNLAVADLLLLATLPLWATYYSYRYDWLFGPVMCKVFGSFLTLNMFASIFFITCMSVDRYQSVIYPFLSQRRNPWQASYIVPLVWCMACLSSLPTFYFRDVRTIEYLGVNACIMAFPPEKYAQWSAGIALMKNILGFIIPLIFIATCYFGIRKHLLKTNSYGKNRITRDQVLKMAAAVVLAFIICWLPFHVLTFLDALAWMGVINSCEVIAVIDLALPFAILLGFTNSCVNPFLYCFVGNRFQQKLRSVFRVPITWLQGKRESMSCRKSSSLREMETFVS

Carbonic anhydrase 2 = Carbonic anhydrase 2 (Homo sapiens, UniProt P00918); test: DRUGMATRIX: Carbonic Anhydrase II enzyme inhibition (substrate: 4-Nitrophenyl acetate (4-NPA)); format: tissue-based, Erythrocyte; details: erythrocyte; Not Active = under 50% inhibition at 10 µM
[4] = molecular target: Sodium-dependent dopamine transporter (Homo sapiens, UniProt Q01959); test: DRUGMATRIX: Dopamine Transporter radioligand binding (ligand: [125I] RTI-55); format: cell membranes, CHO-K1, Membrane; details: cho-k1; Not Active = under 50% inhibition at 10 µM
Sequence of Sodium-dependent dopamine transporter (Q01959 whole entry): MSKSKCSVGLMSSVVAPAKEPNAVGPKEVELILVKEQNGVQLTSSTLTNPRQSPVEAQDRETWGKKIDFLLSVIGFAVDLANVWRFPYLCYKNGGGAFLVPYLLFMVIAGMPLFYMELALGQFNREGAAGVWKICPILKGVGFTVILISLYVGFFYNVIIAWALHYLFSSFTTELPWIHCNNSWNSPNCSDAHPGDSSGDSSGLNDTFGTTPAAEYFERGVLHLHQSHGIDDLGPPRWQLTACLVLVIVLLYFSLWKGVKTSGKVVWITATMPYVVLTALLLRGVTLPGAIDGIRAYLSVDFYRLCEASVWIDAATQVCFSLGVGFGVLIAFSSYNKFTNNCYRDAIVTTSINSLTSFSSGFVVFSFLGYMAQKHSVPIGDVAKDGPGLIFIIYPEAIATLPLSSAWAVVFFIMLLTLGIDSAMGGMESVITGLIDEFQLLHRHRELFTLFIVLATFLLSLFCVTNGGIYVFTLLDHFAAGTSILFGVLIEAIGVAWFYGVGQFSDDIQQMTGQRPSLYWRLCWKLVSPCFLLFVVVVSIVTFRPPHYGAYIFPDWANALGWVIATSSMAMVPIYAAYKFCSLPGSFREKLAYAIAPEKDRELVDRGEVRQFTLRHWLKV

Cathepsin G = molecular target: T3, Cathepsin G (Homo sapiens, UniProt P08311); format: tissue-based; details: neutrophil;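 also: inhibition of Cathepsin G enzyme activity, tested on an AMC-conjugated peptide substrate; in other assays of this panel Not Active means under 50% inhibition at 10 µM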
T3 sequence (P08311 whole entry): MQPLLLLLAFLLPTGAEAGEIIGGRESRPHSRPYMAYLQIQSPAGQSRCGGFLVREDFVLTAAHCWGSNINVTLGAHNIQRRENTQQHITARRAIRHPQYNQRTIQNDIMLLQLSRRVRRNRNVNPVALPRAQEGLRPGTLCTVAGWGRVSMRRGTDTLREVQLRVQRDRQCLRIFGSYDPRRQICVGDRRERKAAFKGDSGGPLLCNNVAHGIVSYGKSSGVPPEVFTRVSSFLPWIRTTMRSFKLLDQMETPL

[5] = molecular target: T4, Alpha-1B adrenergic receptor (Rattus norvegicus, UniProt P15823); test: DRUGMATRIX: Alpha-1B adrenergic receptor radioligand binding (ligand: prazosin); format: cell membranes, Wistar, Liver, Membrane; details: Not Active = under 50% inhibition at 10 µM
T4 sequence (P15823 whole entry): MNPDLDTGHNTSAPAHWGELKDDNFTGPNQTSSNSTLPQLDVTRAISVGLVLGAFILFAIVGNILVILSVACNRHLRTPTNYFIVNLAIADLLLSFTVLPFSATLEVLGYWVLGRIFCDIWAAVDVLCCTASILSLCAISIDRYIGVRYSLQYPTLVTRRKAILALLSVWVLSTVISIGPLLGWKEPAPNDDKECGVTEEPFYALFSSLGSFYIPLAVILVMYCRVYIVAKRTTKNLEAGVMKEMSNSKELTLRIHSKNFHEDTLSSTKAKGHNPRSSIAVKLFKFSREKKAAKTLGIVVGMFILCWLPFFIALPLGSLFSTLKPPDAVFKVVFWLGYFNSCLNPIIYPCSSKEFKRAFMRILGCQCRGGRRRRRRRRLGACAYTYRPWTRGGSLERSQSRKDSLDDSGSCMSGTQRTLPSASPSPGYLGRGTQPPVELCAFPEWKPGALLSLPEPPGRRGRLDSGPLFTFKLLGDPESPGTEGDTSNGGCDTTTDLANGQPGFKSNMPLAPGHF

CO[C@H]1C[C@@H]2CC[C@@H](C)[C@@](O)(O2)C(=O)C(=O)N2CCCC[C@H]2C(=O)O[C@H]([C@H](C)C[C@@H]2CC[C@@H](O)[C@H](OC)C2)CC(=O)[C@H](C)/C=C(\C)[C@@H](O)[C@@H](OC)C(=O)[C@H](C)C[C@H](C)/C=C/C=C/C=C/1C [SIROLIMUS]
Not Active: IC50 [1] | IC50 [2] | Ki [2] | IC50 [3] | IC50 (Carbonic anhydrase 2) | IC50 [4] | IC50 (Cathepsin G) | IC50 [5]

CN[C@@H]1[C@H](O)[C@H](NC)[C@H]2O[C@@]3(O)C(=O)C[C@@H](C)O[C@H]3O[C@@H]2[C@H]1O [SPECTINOMYCIN]
Not Active: IC50 [1] | IC50 [2] | Ki [2] | IC50 [3] | IC50 (Carbonic anhydrase 2) | IC50 [4] | IC50 (Cathepsin G) | IC50 [5]

COc1ncnc(NS(=O)(=O)c2ccc(N)cc2)c1OC [SULFADOXINE]
Not Active: IC50 [1] | IC50 [2] | Ki [2] | IC50 [3] | IC50 (Carbonic anhydrase 2) | IC50 [4] | IC50 (Cathepsin G) | IC50 [5]

Nc1ccc(S(=O)(=O)Nc2nccs2)cc1 [SULFATHIAZOLE]
Not Active: IC50 [1] | IC50 [2] | Ki [2] | IC50 [3] | IC50 (Carbonic anhydrase 2) | IC50 [4] | IC50 (Cathepsin G) | IC50 [5]

C[C@]12CC[C@H]3[C@@H](CCC4=CC(=O)CC[C@@]43C)[C@@H]1CC[C@@H]2O [TESTOSTERONE]
Not Active: IC50 [1] | IC50 [2] | Ki [2] | IC50 [3] | IC50 (Carbonic anhydrase 2) | IC50 [4] | IC50 (Cathepsin G) | IC50 [5]

CC(C)(C)NC[C@H](O)COc1nsnc1N1CCOCC1 [TIMOLOL]
Not Active: IC50 [1] | IC50 [2] | Ki [2] | IC50 [3] | IC50 (Carbonic anhydrase 2) | IC50 [4] | IC50 (Cathepsin G) | IC50 [5]

CCS(=O)(=O)CCn1c([N+](=O)[O-])cnc1C [TINIDAZOLE]
Not Active: IC50 [1] | IC50 [2] | Ki [2] | IC50 [3] | IC50 (Carbonic anhydrase 2) | IC50 [4] | IC50 (Cathepsin G) | IC50 [5]

C[C@@H]1C[C@H]2[C@@H]3CCC4=CC(=O)C=C[C@]4(C)C3=CC[C@]2(C)[C@H]1C(=O)CN1CCN(c2cc(N3CCCC3)nc(N3CCCC3)n2)CC1 [TIRILAZAD]
Not Active: IC50 [1] | IC50 [2] | Ki [2] | Ki [3] | IC50 (Carbonic anhydrase 2) | IC50 [4] | IC50 (Cathepsin G) | IC50 [5]

NC[C@H]1O[C@H](O[C@H]2[C@H](O)[C@@H](O[C@H]3O[C@H](CO)[C@@H](O)[C@H](N)[C@H]3O)[C@H](N)C[C@@H]2N)[C@H](N)C[C@@H]1O [TOBRAMYCIN]
Not Active: IC50 [1] | IC50 [2] | Ki [2] | IC50 [3] | IC50 (Carbonic anhydrase 2) | IC50 [4] | IC50 (Cathepsin G) | IC50 [5]

O=C(O)C(Cl)(Cl)Cl [TRICHLOROACETIC ACID]
Not Active: IC50 [1] | IC50 [2] | Ki [2] | IC50 [3] | IC50 (Carbonic anhydrase 2) | IC50 [4] | IC50 (Cathepsin G) | IC50 [5]

COc1ccc(CN2CCNCC2)c(OC)c1OC [TRIMETAZIDINE]
Not Active: IC50 [1] | IC50 [2] | Ki [2] | IC50 [3] | IC50 (Carbonic anhydrase 2) | IC50 [4] | IC50 (Cathepsin G) | IC50 [5]

CC(=O)O[C@H]1C[C@@H]2CC[C@@H]3[C@H](CC[C@@]4(C)[C@H]3C[C@H]([N+]3(C)CCCCC3)[C@@H]4OC(C)=O)[C@@]2(C)C[C@@H]1N1CCCCC1.[Br-] [VECURONIUM BROMIDE]
Not Active: IC50 [1] | IC50 [2] | Ki [2] | IC50 [3] | IC50 (Carbonic anhydrase 2) | IC50 [4] | IC50 (Cathepsin G) | IC50 [5]

COc1cc(C(=O)NS(=O)(=O)c2ccccc2C)ccc1Cc1cn(C)c2ccc(NC(=O)OC3CCCC3)cc12 [ZAFIRLUKAST]
Not Active: IC50 [1] | IC50 [2] | Ki [2] | IC50 [3] | IC50 (Carbonic anhydrase 2) | IC50 [4] | IC50 (Cathepsin G) | IC50 [5]

Cc1cn([C@H]2C[C@H](N=[N+]=[N-])[C@@H](CO)O2)c(=O)[nH]c1=O [ZIDOVUDINE]
Not Active: IC50 [1] | IC50 [2] | Ki [2] | IC50 [3] | IC50 (Carbonic anhydrase 2) | IC50 [4] | IC50 (Cathepsin G) | IC50 [5]

STANNOUS FLUORIDE
Not Active: IC50 [1] | Ki [1] | IC50 [2] | Ki [2] | IC50 [3] | Ki [3] | IC50 (Carbonic anhydrase 2) | Ki (Carbonic anhydrase 2) | IC50 [4] | Ki [4] | IC50 (Cathepsin G) | Ki (Cathepsin G) | IC50 [5] | Ki [5]

THIMEROSAL
Not Active: IC50 [1] | Ki [1] | IC50 [2] | Ki [2] | IC50 [3] | Ki [3] | IC50 (Carbonic anhydrase 2) | Ki (Carbonic anhydrase 2) | IC50 [4] | Ki [4] | IC50 (Cathepsin G) | Ki (Cathepsin G) | IC50 [5] | Ki [5]
